This is an account of results in patent US20250025443A1, “COMPOUNDS AND METHODS FOR TREATING CORONA VIRUSES” (CLEAR CREEK BIO, INC., priority 2021, published 2025).

Molecules are shown by their SMILES. Where two headings read alike, the source gives them in different places.

The test addresses SARS-CoV-2 Papain-Like Protease (PLpro) (Severe acute respiratory syndrome coronavirus 2 (2019-nCoV) (SARS-CoV-2), UniProt P0DTD1). In words: biochemical. The settings on record: read-out: PLpro IC50.
Setting [1] is: PLpro enzymatic fluorescence assay, class symbols.
Setting [2] is: SARS-CoV-2 PLpro enzymatic fluorescence assay.

As for `Cc1ccc(NC2CN(C(=O)OC(C)(C)C)C2)cc1C(=O)NC(C)c1cccc2c1CCCC2` (stereo not shown) [Compound 181], the IC50 (commonly the concentration needed to halve the response being measured) under setting [1] is above 5000 nM.
`Cc1ccc(N)cc1C(=O)NC(c1cccc2ccccc12)C(F)(F)F` (stereo not shown) [Compound 183, 5-Amino-2-methyl-N-(2,2,2-trifluoro-1-(naphthalen-1-yl)ethyl)benzamide]: the 50% inhibitory concentration (IC50) under setting [2] lay in the range of 1000 to 5000 nM.
Consider `CN(Cc1ccc2[nH]ncc2c1)C1(c2cccc3ccccc23)CC1` [Compound 184, N-((1H-Indazol-5-yl)methyl)-N-methyl-1-(naphthalen-1-yl)cyclopropane amine], for which the IC50 under setting [2] is above 5000 nM.
On the same count and under the same terms, the figure for `Cc1ccc(N)cc1C(=O)NC(c1cccc2ccccc12)C(F)F` (stereo not shown) [Compound 185, 5-Amino-N-(2,2-difluoro-1-(naphthalen-1-yl)ethyl)-2-methylbenzamide] is 1000 to 5000 nM; for `Cc1ccc(NC2CNC2)cc1C(=O)NC1(c2cccc(-c3ccc(CN4CCCC4)s3)c2)CC1` [Compound 186, 5-(Azetidin-3-ylamino)-2-methyl-N-(1-(3-(5-(pyrrolidin-1-ylmethyl)thiophen-2-yl)phenyl)cyclopropyl)benzamide] it is 100 to 1000 nM; for `Cc1ccc(NC2CNC2)cc1C(=O)NC1(c2cccc(-c3ccccc3)c2)CC1` [Compound 187, N-(1-([1,1′-Biphenyl]-3-yl)cyclopropyl)-5-(azetidin-3-ylamino)-2-methylbenzamide] it is 1000 to 5000 nM.
Regarding `Cc1ccc(NC2CN(C(=O)OC(C)(C)C)C2)cc1C(=O)NC1(c2cccc(-c3ccccc3)c2)CC1` [Compound 188, tert-Butyl 3-((3-((1-([1,1′-biphenyl]-3-yl)cyclopropyl)carbamoyl)-4-methylphenyl)amino)azetidine-1-carboxylate], under setting [1], the half-inhibitory concentration (IC50) is above 5000 nM.
Consider `Cc1cc2cc(CNC(=O)OC(C)(C)C)[nH]c2cc1C(=O)N[C@H](C)c1cccc2ccccc12` [Compound 189, (R)-tert-Butyl((5-methyl-6-((1-(naphthalen-1-yl)ethyl)carbamoyl)-1H-indol-2-yl)methyl)carbamate], for which the IC50 under setting [2] was above 5000 nM.
For `Cc1cc2c(cc1C(=O)NC1(c3cccc4ccccc34)CC1)NC(CN)C2` (stereo not shown) [Compound 190, 2-(Aminomethyl)-5-methyl-N-(1-(naphthalen-1-yl)cyclopropyl)indoline-6-carboxamide], the IC50 under setting [2] is below 100 nM.
In the case of `Cc1ccc(N)cc1C(=O)NC1(c2cccc3ccccc23)COC1` [Compound 191, 5-Amino-2-methyl-N-(3-(naphthalen-1-yl)oxetan-3-yl)benzamide], the concentration for half-maximal inhibition (IC50) under setting [2] was in the range of 100 to 1000 nM.
Same read-out and setting: the figure for `Cc1cc2cc(CN(C)C)n(CO)c2cc1C(=O)N[C@H](C)c1cccc2ccccc12` [Compound 192, (R)-2-((Dimethylamino)methyl)-1-(hydroxymethyl)-5-methyl-N-(1-(naphthalen-1-yl)ethyl)-1H-indole-6-carboxamide] is 100 to 1000 nM.
The same measure, in the same setting: the figure for `Cc1cc2c(cc1C(=O)NC1(c3cccc4ccccc34)CC1)N1C(=O)NCC1C2` (stereo not shown) [Compound 194, 7-Methyl-N-(1-(naphthalen-1-yl)cyclopropyl)-3-oxo-2,3,9,9a-tetrahydro-1H-imidazo[1,5-a]indole-6-carboxamide] is 1000 to 5000 nM; for `Cc1ccc(N)cc1C(=O)NC(C#N)c1cccc2ccccc12` (stereo not shown) [Compound 195, 5-Amino-N-(cyano(naphthalen-1-yl)methyl)-2-methylbenzamide] it is above 5000 nM; for `Cc1ccc(NC2CNC2)cc1C(=O)NC1(c2cccc(-c3ccc(CN[C@H]4CC[C@@H](O)C4)s3)c2)CC1` [Compound 196, 5-(Azetidin-3-ylamino)-N-(1-(3-(5-((((1S,3R)-3-hydroxycyclopentyl)amino)methyl)thiophen-2-yl)phenyl)cyclopropyl)-2-methylbenzamide] it is 100 to 1000 nM.
Same read-out and setting: the figure for `Cc1cc2cc(CN)oc2cc1C(=O)NC1(c2cccc3ccccc23)CC1` [Compound 197, 2-(Aminomethyl)-5-methyl-N-(1-(naphthalen-1-yl)cyclopropyl)benzofuran-6-carboxamide] is below 100 nM.
Consider `Cc1cc2cc(CN(C)C)oc2cc1C(=O)NC1(c2cccc3ccccc23)CC1` [Compound 198, 2-((Dimethylamino)methyl)-5-methyl-N-(1-(naphthalen-1-yl)cyclopropyl)benzofuran-6-carboxamide], for which the half-inhibitory concentration (IC50) under setting [2] lay in the range of 100 to 1000 nM.
Regarding `Cc1cc2cc[nH]c2cc1C(=O)NC1(c2cccc3ccccc23)CC1` [Compound 199, 5-Methyl-N-(1-(naphthalen-1-yl)cyclopropyl)-1H-indole-6-carboxamide], the IC50 under setting [2] is 100 to 1000 nM.
Turning to `Cc1ccc(N)cc1C(=O)NC(CF)c1cccc2ccccc12` (stereo not shown) [Compound 200, 5-Amino-N-(2-fluoro-1-(naphthalen-1-yl)ethyl)-2-methylbenzamide], under setting [2], the concentration for half-maximal inhibition (IC50) fell in the range of 1000 to 5000 nM.
Same read-out and setting: the figure for `Cc1cc2ccn(C)c2cc1C(=O)NC1(c2cccc3ccccc23)CC1` [Compound 201, 1,5-Dimethyl-N-(1-(naphthalen-1-yl)cyclopropyl)-1H-indole-6-carboxamide] is 100 to 1000 nM; for `Cc1cc2cc(CCN)[nH]c2cc1C(=O)NC1(c2cccc3ccccc23)CC1` [Compound 202, 2-(2-Aminoethyl)-5-methyl-N-(1-(naphthalen-1-yl)cyclopropyl)-1H-indole-6-carboxamide] it is 100 to 1000 nM; for `Cc1cc2ccn(CCN)c2cc1C(=O)NC1(c2cccc3ccccc23)CC1` [Compound 203, 1-(2-Aminoethyl)-5-methyl-N-(1-(naphthalen-1-yl)cyclopropyl)-1H-indole-6-carboxamide] it is 100 to 1000 nM.
As to `Cc1cc2cc(C(=O)O)[nH]c2cc1C(=O)NC1(c2cccc3ccccc23)CC1` [Compound 204, 5-Methyl-6-((1-(naphthalen-1-yl)cyclopropyl)carbamoyl)-1H-indole-2-carboxylic acid], the half-maximal inhibitory concentration (IC50) under setting [2] fell in the range of 100 to 1000 nM.
Still for that read-out and setting: the figure for `Cc1cc2cc(C(N)=O)[nH]c2cc1C(=O)NC1(c2cccc3ccccc23)CC1` [Compound 205] is 100 to 1000 nM; for `Cc1cc2cc(CN3CCOCC3)[nH]c2cc1C(=O)N[C@H](C)c1cccc2ccccc12` [Compound 206, (R)-5-Methyl-2-(morpholinomethyl)-N-(1-(naphthalen-1-yl)ethyl)-1H-indole-6-carboxamide] it is 1000 to 5000 nM.
With `Cc1cc2c(cc1C(=O)NC1(c3cccc4ccccc34)CC1)NCC2` [Compound 207, 5-Methyl-N-(1-(naphthalen-1-yl)cyclopropyl)indoline-6-carboxamide], the IC50 under setting [2] was 100 to 1000 nM.
Still for that read-out and setting: the figure for `Cc1cc2ccn(C)c2cc1C(=O)N(C)C1(c2cccc3ccccc23)CC1` [Compound 208, N,1,5-Trimethyl-N-(1-(naphthalen-1-yl)cyclopropyl)-1H-indole-6-carboxamide] is above 5000 nM.
Still for that read-out and setting: the figure for `Cc1ccc(OCCN2CCOCC2)cc1C(=O)NC1(c2cccc3ccccc23)CC1` [Compound 209, 2-Methyl-5-(2-morpholinoethoxy)-N-(1-(naphthalen-1-yl)cyclopropyl)benzamide] is 100 to 1000 nM; for `Cc1cc2c(cc1C(=O)NC1(c3cccc4ccccc34)CC1)N(C)CC2` [Compound 210, 1,5-Dimethyl-N-(1-(naphthalen-1-yl)cyclopropyl)indoline-6-carboxamide] it is 100 to 1000 nM; for `Cc1ccc(OCCN)cc1C(=O)N(C)C1(c2cccc3ccccc23)CC1` [Compound 211, 5-(2-Aminoethoxy)-N,2-dimethyl-N-(1-(naphthalen-1-yl)cyclopropyl)benzamide] it is above 5000 nM.
Same read-out and setting: the value for `Cc1cc2c(C)c[nH]c2cc1C(=O)NC1(c2cccc3ccccc23)CC1` [Compound 212, 3,5-Dimethyl-N-(1-(naphthalen-1-yl)cyclopropyl)-1H-indole-6-carboxamide] was 100 to 1000 nM; that for `Cc1cc2cc(CN3CCOCC3)[nH]c2cc1C(=O)NC1(c2cccc3ccccc23)CC1` [Compound 213, 5-Methyl-2-(morpholinomethyl)-N-(1-(naphthalen-1-yl)cyclopropyl)-1H-indole-6-carboxamide] was 1000 to 5000 nM.
Turning to `Cc1ccc(OCCN(C)C)cc1C(=O)NC1(c2cccc3ccccc23)CC1` [Compound 214, 5-(2-(Dimethylamino)ethoxy)-2-methyl-N-(1-(naphthalen-1-yl)cyclopropyl)benzamide], the IC50 under setting [2] is below 100 nM.
`Cc1ccc(OCCN)cc1C(=O)NC1(c2cccc3ccccc23)CC1` [Compound 215, 5-(2-Aminoethoxy)-2-methyl-N-(1-(naphthalen-1-yl)cyclopropyl)benzamide]: the 50% inhibitory concentration (IC50) under setting [2] was below 100 nM.
The same measure, in the same setting: the figure for `Cc1cc(I)c(N)cc1C(=O)NC1(c2cccc3ccccc23)CC1` [Compound 216, 5-Amino-4-iodo-2-methyl-N-(1-(naphthalen-1-yl)cyclopropyl)benzamide] is 100 to 1000 nM; for `Cc1cc(C#Cc2ccccc2)c(N)cc1C(=O)NC1(c2cccc3ccccc23)CC1` [Compound 217, 5-Amino-2-methyl-N-(1-(naphthalen-1-yl)cyclopropyl)-4-(phenylethynyl)benzamide] it is above 5000 nM.
The same measure, in the same setting: the value for `Cc1cc2ccn(C3CNC3)c2cc1C(=O)NC1(c2cccc3ccccc23)CC1` [Compound 218, 1-(Azetidin-3-yl)-5-methyl-N-(1-(naphthalen-1-yl)cyclopropyl)-1H-indole-6-carboxamide] was below 100 nM; that for `Cc1ccc(N)cc1C(=O)NC1(c2cccc3ccccc23)CCC1` [Compound 219, 5-Amino-2-methyl-N-(1-(naphthalen-1-yl)cyclobutyl)benzamide] was above 5000 nM; that for `CNCc1cc2cc(C)c(C(=O)NC3(c4cccc5ccccc45)CC3)cc2o1` [Compound 220, 5-Methyl-2-((methylamino)methyl)-N-(1-(naphthalen-1-yl)cyclopropyl)benzofuran-6-carboxamide] was below 100 nM.
On the same count and under the same terms, the value for `CNCc1cc2cc(C)c(C(=O)NC3(c4cccc5ccccc45)CC3)cc2[nH]1` [Compound 221] was below 100 nM; that for `CNCCc1cc2cc(C)c(C(=O)NC3(c4cccc5ccccc45)CC3)cc2[nH]1` [Compound 222, 5-Methyl-2-(2-(methylamino)ethyl)-N-(1-(naphthalen-1-yl)cyclopropyl)-1H-indole-6-carboxamide] was 100 to 1000 nM.
